A word on the IC50: it is the concentration that gives 50% inhibition. A high value points to weaker potency in that assay.

The values that follow come from paper PMC5834492, “Antimycobacterial drug discovery using Mycobacteria-infected amoebae identifies anti-infectives and new molecular targets” (Scientific Reports, 2018).

The structures appear in SMILES notation. Like-named read-outs stand apart in the source and are kept apart here.

Data set [1] relates to M. marinum luxCDABE. In kind it is cell-based, Mycobacterium marinum. To be noted: 10 µM.
Data set [2] relates to M. marinum GFP. In kind it is cell-based, Mycobacterium marinum. Conditions: 10 µM; antibiotic assay.
Data set [3] concerns M. marinum in A. castellanii. In kind it is cell-based, Mycobacterium marinum. To be noted: 10 µM.
In data set [4] the test system is M. marinum in BV2 microglial cells. In kind it is cell-based, Mycobacterium marinum.
The test system of data set [5] is D. discoideum GFP-ABD. To be noted: 10 µM.
The subject of data set [6] is Mtb H37Rv in THP-1. Set-up: method as in Sorrentino et al, 2015. Conditions: ref Sorrentino et al, 2015, cited from earlier work; for Extracellular MIC90/ Inracellular MIC90: ratio.
The test system of data set [7] is Mtb H37Rv. More on the design: method as in Sorrentino et al, 2015. To be noted: ref Sorrentino et al, 2015; cited from earlier work.
The mark [8] stands for this setting: THP1 / Mtb H37Rv infection assay.

Turning to `O=C(c1cc2ccccc2o1)N1CCN(Cc2ccc3c(c2)OCO3)CC1` [GSK861337A], the “M. marinum luxCDABE normalised growth, control=1.00, mean” value in data set [1] is recorded as 0.00. Besides, in data set [2], the “M. marinum GFP normalised growth, control=1.00, mean” value (“M. marinum GFP normalised growth” below) is recorded as 0.10. Moreover, in data set [3], the “A. castellanii / M. marinum normalised growth, control=1.00, mean” value was determined as 0.70. Besides, the IC50 in data set [4] came out at 9.31 µM. For the same compound, in data set [4] (10 µM), the “BV2 / M. marinum normalised growth, control=1.00, mean” value (“BV2 / M. marinum normalised growth” below) is reported as 0.77. The “D. discoideum GFP-ABD normalised growth, control=1.00, mean” value in data set [5] is reported as 0.31. Moreover, the “Intracelullar MIC90 in THP-1” value in data set [6] (setting [8]) is 5.55 µM. For the same compound, the “Extracellular MIC90/ Inracellular MIC90” value in data set [6] is reported as 0.49. Further, the “Extracellular MIC90” value in data set [7] is on record as 2.7 µM.

`COc1ccc(CCNc2cc(-c3ccccc3)nc3ncnn23)cc1` [GSK888636A]: the “M. marinum luxCDABE normalised growth, control=1.00, mean” value in data set [1] stood at 0.00. Moreover, the “M. marinum GFP normalised growth” value in data set [2] worked out at 0.44. Moreover, in data set [3], the “A. castellanii / M. marinum normalised growth, control=1.00, mean” value was found to be 1.02. In data set [4], this compound had an IC50 of 5.42 µM. Also, the “BV2 / M. marinum normalised growth” value in data set [4] (10 µM) came to 0.72. Besides, the “D. discoideum GFP-ABD normalised growth, control=1.00, mean” value in data set [5] is recorded as 1.15. Further, the “Intracelullar MIC90 in THP-1” value in data set [6] (setting [8]) is listed as 1.85 µM. Moreover, the “Extracellular MIC90/ Inracellular MIC90” value in data set [6] is 0.32. Also, the “Extracellular MIC90” value in data set [7] was 0.6 µM.

Regarding `Cc1nc2ccccn2c1C(=O)NCc1cccs1` [GSK892651A], the “M. marinum luxCDABE normalised growth, control=1.00, mean” value in data set [1] was 0.00. For the same compound, in data set [2], the “M. marinum GFP normalised growth” value is recorded as 0.12. Besides, the “A. castellanii / M. marinum normalised growth, control=1.00, mean” value in data set [3] turned out to be 0.65. The compound also gave a half-maximal inhibitory concentration (IC50) in data set [4] of 4.41 µM. Also, the “BV2 / M. marinum normalised growth” value in data set [4] (10 µM) is on record as 0.60. Besides, the “D. discoideum GFP-ABD normalised growth, control=1.00, mean” value in data set [5] is recorded as 0.83. The “Intracelullar MIC90 in THP-1” value in data set [6] (setting [8]) was 5.55 µM. The “Extracellular MIC90/ Inracellular MIC90” value in data set [6] was 1.62. Also, in data set [7], the “Extracellular MIC90” value is given as 9 µM.

Regarding `CSc1ccccc1C(=O)Nc1nc(-c2ccccn2)cs1` [GSK921190A], in data set [1], the “M. marinum luxCDABE normalised growth, control=1.00, mean” value was determined as 0.10. In addition, the “M. marinum GFP normalised growth” value in data set [2] is given as 0.45. The “A. castellanii / M. marinum normalised growth, control=1.00, mean” value in data set [3] is reported as 1.20. Moreover, it took 4.08 µM to reach half-maximal inhibition in data set [4] (IC50). The “BV2 / M. marinum normalised growth” value in data set [4] (10 µM) amounted to 0.94. In data set [5], the “D. discoideum GFP-ABD normalised growth, control=1.00, mean” value is given as 0.94. Also, in data set [6] (setting [8]), the “Intracelullar MIC90 in THP-1” value is 16.65 µM. The “Extracellular MIC90/ Inracellular MIC90” value in data set [6] was 0.1. Also, the “Extracellular MIC90” value in data set [7] is reported as 1.7 µM.

As for `Cc1nc2ccccn2c1C(=O)NCc1ccccc1` [GSK957094A], in data set [1], the “M. marinum luxCDABE normalised growth, control=1.00, mean” value came out at 0.11. In addition, the “M. marinum GFP normalised growth” value in data set [2] came to 0.0746. Besides, the “A. castellanii / M. marinum normalised growth, control=1.00, mean” value in data set [3] came out at 0.54. This compound gave an IC50 in data set [4] of 7.59 µM. For the same compound, the “BV2 / M. marinum normalised growth” value in data set [4] (10 µM) stood at 0.52. Further, the “D. discoideum GFP-ABD normalised growth, control=1.00, mean” value in data set [5] was 0.93. Moreover, in data set [6] (setting [8]), the “Intracelullar MIC90 in THP-1” value is reported as 5.55 µM. The “Extracellular MIC90/ Inracellular MIC90” value in data set [6] is 0.36. The “Extracellular MIC90” value in data set [7] is 2 µM.

Turning to `COc1ccccc1OCCCCn1c(C2CC2)nc2ccccc21` [GSK994258A], the “M. marinum luxCDABE normalised growth, control=1.00, mean” value in data set [1] is recorded as 0.00. The “M. marinum GFP normalised growth” value in data set [2] is 0.10. Besides, the “A. castellanii / M. marinum normalised growth, control=1.00, mean” value in data set [3] came out at 1.03. Also, in data set [4], the IC50 came out at 8.73 µM. Further, in data set [4] (10 µM), the “BV2 / M. marinum normalised growth” value is 0.59. Also, the “D. discoideum GFP-ABD normalised growth, control=1.00, mean” value in data set [5] came out at 0.31. The “Intracelullar MIC90 in THP-1” value in data set [6] (setting [8]) is 5.55 µM. For the same compound, in data set [6], the “Extracellular MIC90/ Inracellular MIC90” value is on record as 0.61. Also, in data set [7], the “Extracellular MIC90” value is 3.4 µM.

Regarding `COc1ccc(Nc2ccccc2NC(=O)c2ccc(O)nc2)cc1` [GSK1051703A], in data set [1], the “M. marinum luxCDABE normalised growth, control=1.00, mean” value is 1.00. For the same compound, the “M. marinum GFP normalised growth” value in data set [2] is listed as 0.84. Further, the “A. castellanii / M. marinum normalised growth, control=1.00, mean” value in data set [3] turned out to be 1.00. In data set [4], this compound displayed an IC50 of 6.47 µM. In data set [4] (10 µM), the “BV2 / M. marinum normalised growth” value worked out at 0.65. Also, the “D. discoideum GFP-ABD normalised growth, control=1.00, mean” value in data set [5] is 1.00. In addition, the “Intracelullar MIC90 in THP-1” value in data set [6] (setting [8]) is recorded as 5.55 µM. Also, the “Extracellular MIC90/ Inracellular MIC90” value in data set [6] is recorded as 1.28. Further, in data set [7], the “Extracellular MIC90” value was 7.1 µM.

Regarding `O=C(NC(Cc1ccccc1)C(=O)Nc1ccccc1N1CCOCC1)c1cccs1` (stereo not shown) [GSK1055950A], in data set [1], the “M. marinum luxCDABE normalised growth, control = 1.00, mean” value is 0,00 and the “M. marinum luxCDABE normalised growth, control=1.00, mean” value is reported as 0.00. For the same compound, the “M. marinum GFP normalised growth” value in data set [2] is on record as -0.01. In data set [3], the “A. castellanii / M. marinum normalised growth, control=1.00, mean” value was 0.24; the “Hits A. castellanii/M. marinum assay True/False” value was “TRUE”; the “anti-infective properties in A. castellanii infection assay” value is given as “strong anti-infective properties”. In addition, the IC50 in data set [4] was 2.84 µM. Besides, in data set [4] (10 µM), the “BV2 / M. marinum normalised growth” value was 0.33; the “anti-infective properties in microglial cell (BV2) infection assay” value is reported as “strong anti-infective properties”; the “hit in BV2/M. marinum assay True/False” value was “TRUE”. In data set [5], the “D. discoideum GFP-ABD normalised growth, control = 1.00, mean” value was 1,07 and the “D. discoideum GFP-ABD normalised growth, control=1.00, mean” value is 1.07. In addition, the “Intracelullar MIC90 in THP-1” value in data set [6] (Mtb H37Rv-infected THP1 cells) is on record as 1.85 µM. For the same compound, the “Intracelullar MIC90 in THP-1” value in data set [6] (setting [8]) is 1.85 µM. In addition, in data set [6], the “Extracellular MIC90/ Inracellular MIC90” value is reported as 4.11. Further, in data set [7], the “Extracellular MIC90” value is reported as 7.6 µM.

For the compound `Cc1nnc(NCc2cccc(Cl)c2)c2ccccc12` [GSK1302651A], the “M. marinum luxCDABE normalised growth, control=1.00, mean” value in data set [1] is recorded as 0.00. Also, in data set [2], the “M. marinum GFP normalised growth” value is 0.56. Besides, in data set [3], the “A. castellanii / M. marinum normalised growth, control=1.00, mean” value turned out to be 1.01. In data set [4], this compound registered a half-maximal inhibitory concentration (IC50) of 4.41 µM. Further, the “BV2 / M. marinum normalised growth” value in data set [4] (10 µM) turned out to be 0.87. The “D. discoideum GFP-ABD normalised growth, control=1.00, mean” value in data set [5] turned out to be 0.97. Also, in data set [6] (setting [8]), the “Intracelullar MIC90 in THP-1” value is on record as 5.55 µM. Also, in data set [6], the “Extracellular MIC90/ Inracellular MIC90” value is 1.06. The “Extracellular MIC90” value in data set [7] is 5.9 µM.

On to `Cc1ccc(C(=O)Nc2nc(-c3ccccn3)cs2)s1` [GSK1372568A], for which the “M. marinum luxCDABE normalised growth, control=1.00, mean” value in data set [1] is reported as 0.00. Moreover, in data set [2], the “M. marinum GFP normalised growth” value is on record as 0.69. Besides, the “A. castellanii / M. marinum normalised growth, control=1.00, mean” value in data set [3] is listed as 1.35. The compound further displayed an IC50 in data set [4] of 5.33 µM. The “BV2 / M. marinum normalised growth” value in data set [4] (10 µM) is on record as 0.95. Also, the “D. discoideum GFP-ABD normalised growth, control=1.00, mean” value in data set [5] is given as 0.31. Besides, in data set [6] (setting [8]), the “Intracelullar MIC90 in THP-1” value is on record as 50 µM. For the same compound, the “Extracellular MIC90/ Inracellular MIC90” value in data set [6] is 0.17. Besides, the “Extracellular MIC90” value in data set [7] is on record as 8.4 µM.

Consider `CCn1c(=O)c(=O)[nH]c2cc(C(=O)Nc3ccccc3Nc3ccc(OC)cc3)ccc21` [GSK1385423A], for which, in data set [1], the “M. marinum luxCDABE normalised growth, control=1.00, mean” value amounted to 1.00. In addition, the “M. marinum GFP normalised growth” value in data set [2] is listed as 0.98. For the same compound, in data set [3], the “A. castellanii / M. marinum normalised growth, control=1.00, mean” value worked out at 1.07. In data set [4], this compound registered an IC50 of 2.42 µM. For the same compound, in data set [4] (10 µM), the “BV2 / M. marinum normalised growth” value came out at 0.71. In data set [5], the “D. discoideum GFP-ABD normalised growth, control=1.00, mean” value turned out to be 0.39. Also, in data set [6] (setting [8]), the “Intracelullar MIC90 in THP-1” value is 0.61 µM. Moreover, in data set [6], the “Extracellular MIC90/ Inracellular MIC90” value is reported as 13.77. The “Extracellular MIC90” value in data set [7] was 8.4 µM.
